Experimental data published in US20210269479A1, “USE OF CY[…] FOR TREATING CANCER” (Hepion Pharmaceuticals, Inc., priority 2020, published 2021).

Tested on: human precision cut liver slices (PCLS)
Experiment: RNA-Seq of PCLS, Nonstimulation Protocol (Non-stimulated + CRV vs Non-stimulated + Vehicle)
Type: cell-based
Method: PCLS were obtained from 5 human donors who underwent resection of liver cancer. Replicate slices were collected from healthy margins of the resections and cultured for 4 or 6 days depending on the experimental protocol. In the Nonstimulation Protocol slices were cultured for 6 days and treated for the entire period with DMSO vehicle or 5 μM CRV431. In the Stimulation Protocol slices were rested for 1 day and then administered the cytokines, TGFβ and PDGF-BB, for 3 days to stimulate inflammation and fibrosis. DMSO vehicle, CRV431 (1 and 5 μM), Alk5i (10 μM), obeticholic acid (5 μM), elafibranor (5 μM), resmetirom (5 μM), and Aramchol (5 μM) were administered individually as drug treatments in the Stimulation Protocol concurrent with TGFβ+PDGF-BB. Culture medium treatments were replaced daily.
(d) Gene expression by RNA-Seq. RNA sequencing of the complete transcriptome (30 million reads per sample) was conducted on vehicle and 5 μM CRV431 treatment groups from 3 donors both from the Nonstimulation and Stimulation Protocols. Data were analyzed by bioinformatics software programs to identify genes that were differentially expressed between vehicle and CRV431 treatments.
For the evaluation done for (d), 12 samples corresponding to 3 different donor slides which underwent 4 different treatments were studied. the comparisons carried out in this analysis are: (1) TGFb/PDGF+CRV vs TGFb/PDGF+Vehicle (V), and (2) Non-stimulated+CRV vs Non-stimulated+Vehicle.
Heatmaps were generated by plotting significant differently expressed genes for the comparison Non-stimulated+CRV and Non-stimulated+Vehicle (p-adjust<0.05, log fold change>0.5). First, the heatmap with the samples grouped by group (FIG. 7A) is shown in order to observe the different expression pattern present within the group (blue=vehicle; red=CRV). Then, the same significant genes arweree plotted into a heatmap (FIG. 7B), but the samples are now plotted grouped by donor in order to observe the differences between donors (blue=vehicle; red=CRV).
Significant differently expressed genes that were identified in the comparison Non-stimulated+CRV and Non-stimulated+Vehicle ([…], log fold change>0.5) are provided in Table 3. The fold changes shown are relative to the treatment CRV.
Nonstimulated+CRV431 vs Nonstimulated+Vehicle were then compared by donor. As shown in the PCA, there was a strong effect of the donor. Therefore, the analysis was repeated as in the previous comparison. […] In other words, there were at least 300 copies more in the treatment CRV than in the vehicle. After doing this selection individually for each donor, a venn diagram was plotted showing the overlapping between all three donors. […] So, there are at least 300 copies less in the treated group compared to the vehicle. After doing the selection individually for each donor, a venn diagram was plotted showing the overlapping between all three donors.

[1] = Non-stimulated + CRV vs Non-stimulated + Vehicle, 5 μM
[2] = absence of TGFβ+PDGF-BB, all donors

## CC[C@@H]1NC(=O)[C@H]([C@H](O)[C@H](C)CCCCCCNC(C)=O)N(C)C(=O)[C@H](C(C)C)N(C)C(=O)[C@H](CC(C)C)N(C)C(=O)[C@H](CC(C)C)N(C)C(=O)[C@@H](C)NC(=O)[C@H](C)NC(=O)[C@H](CC(C)C)N(C)C(=O)[C@H](C(C)C)NC(=O)[C@H](CC(C)C)N(C)C(=O)[C@@H](C)N(C)C1=O [CRV431]
[1]
  log2FoldChange, gene AC099668.1: 1.056
  log2FoldChange, gene ACOT9: 0.543
  log2FoldChange, gene ADGRD1: −1.126
  log2FoldChange, gene AFG1L: 1.327
  log2FoldChange, gene AGT: −0.627
  log2FoldChange, gene AKAP10: −1.249
  log2FoldChange, gene ALPK3: −0.621
  log2FoldChange, gene AP000347.1: 1.809
  log2FoldChange, gene AP003119.3: −0.67
  log2FoldChange, gene APBA1: −1.158
  log2FoldChange, gene AREG: 1.034
  log2FoldChange, gene ARVCF: −0.609
  log2FoldChange, gene C4B: −0.506
  log2FoldChange, gene CACUL1: −0.94
  log2FoldChange, gene CCDC149: 0.76
  log2FoldChange, gene CCNK: 0.545
  log2FoldChange, gene CD5L: 1.675
  log2FoldChange, gene CD180: 1.051
  log2FoldChange, gene CDH11: −0.915
  log2FoldChange, gene COL27A1: −0.545
  log2FoldChange, gene CXCL5: 0.663
  log2FoldChange, gene CXCL12: 0.623
  log2FoldChange, gene CYP3A4: −2.313
  log2FoldChange, gene CYP24A1: −1.499
  log2FoldChange, gene DAAM2: 1.498
  log2FoldChange, gene DANCR: 0.693
  log2FoldChange, gene DDX60: −0.739
  log2FoldChange, gene DGKD: −0.85
  log2FoldChange, gene DKK1: 1.939
  log2FoldChange, gene DNAJB9: 0.721
  log2FoldChange, gene DUS3L: 0.745
  log2FoldChange, gene ESM1: −1.157
  log2FoldChange, gene FANCI: −1.319
  log2FoldChange, gene FSTL1: −0.595
  log2FoldChange, gene GDPD5: −0.606
  log2FoldChange, gene GEM: −0.975
  log2FoldChange, gene GMPPA: 0.768
  log2FoldChange, gene GMPPB: 0.715
  log2FoldChange, gene GOLGA8A: −0.669
  log2FoldChange, gene GYG1: 0.94
  log2FoldChange, gene HID1: 0.716
  log2FoldChange, gene HLA-F: −0.727
  log2FoldChange, gene HM13: 0.528
  log2FoldChange, gene HOOK1: −0.998
  log2FoldChange, gene IFI6: −1.273
  log2FoldChange, gene IFI44L: −2.254
  log2FoldChange, gene IFIT2: −0.812
  log2FoldChange, gene ISLR: −0.815
  log2FoldChange, gene KAT14: 0.874
  log2FoldChange, gene KIAA0513: −0.98
  log2FoldChange, gene KRT7: 0.563
  log2FoldChange, gene KRT81: 1.137
  log2FoldChange, gene L3MBTL1: −2.03
  log2FoldChange, gene LGALS3BP: −0.556
  log2FoldChange, gene LILRB4: 0.909
  log2FoldChange, gene LILRB5: 1.075
  log2FoldChange, gene MANF: 0.682
  log2FoldChange, gene MEG3: −0.682
  log2FoldChange, gene MIR194-2HG: −2.973
  log2FoldChange, gene MLLT10: −1.19
  log2FoldChange, gene MPEG1: 0.584
  log2FoldChange, gene MS4A4A: 0.735
  log2FoldChange, gene MT-CO1: −1.083
  log2FoldChange, gene MTCO1P12: −1.183
  log2FoldChange, gene NCOA3: −1.438
  log2FoldChange, gene NOTCH3: −0.564
  log2FoldChange, gene NREP: −0.638
  log2FoldChange, gene NUCB2: 0.851
  log2FoldChange, gene NUGGC: 1.136
  log2FoldChange, gene NUMA1: −0.537
  log2FoldChange, gene PALM2-AKAP2: −1.035
  log2FoldChange, gene PAN2: 0.742
  log2FoldChange, gene PDE4C: −0.669
  log2FoldChange, gene PDZD2: −1.468
  log2FoldChange, gene PEG10: 1.463
  log2FoldChange, gene PFKFB3: −0.545
  log2FoldChange, gene PGM3: 0.751
  log2FoldChange, gene PLTP: −0.584
  log2FoldChange, gene PLXNA2: 1.719
  log2FoldChange, gene POU2F2: 2.856
  log2FoldChange, gene R3HDM2: −0.678
  log2FoldChange, gene RAD51D: 1.387
  log2FoldChange, gene RARRES2: −0.766
  log2FoldChange, gene RFX1: −1.495
  log2FoldChange, gene SCRIB: 0.661
  log2FoldChange, gene SEC11C: 0.844
  log2FoldChange, gene SEC24D: 0.58
  log2FoldChange, gene SEC61B: 0.602
  log2FoldChange, gene SELL: 2.035
  log2FoldChange, gene SERPINB2: 1.255
  log2FoldChange, gene SIPA1L3: −0.652
  log2FoldChange, gene SKI: −0.931
  log2FoldChange, gene SLC2A1: −0.635
  log2FoldChange, gene SLC29A1: −0.53
  log2FoldChange, gene SNHG3: 0.665
  log2FoldChange, gene SOWAHC: −0.601
  log2FoldChange, gene SPCS3: 0.715
  log2FoldChange, gene SRGAP2B: −0.729
  log2FoldChange, gene SSR4: 0.564
  log2FoldChange, gene STX16: 0.577
  log2FoldChange, gene SYNGAP1: −1.718
  log2FoldChange, gene SYNRG: −0.74
  log2FoldChange, gene TMEM154: −1.351
  log2FoldChange, gene TNFSF14: −0.681
  log2FoldChange, gene TRPV6: 0.83
  log2FoldChange, gene TTLL3: −0.579
  log2FoldChange, gene UHRF2: −0.778
  log2FoldChange, gene UNKL: −0.916
  log2FoldChange, gene WNK1: −0.698
  log2FoldChange, gene XAF1: −0.725
[2]
  fold change in RNA, DKK1: +3.8 fold
  fold change in RNA, ESM1: −2.2 fold
  fold change in RNA, IFI44L: −4.8 fold
  fold change in RNA, NCOA3: −2.7 fold
  fold change in RNA, mIR-194-2: −7.9 fold
